According to US9650389B2, “8-oxoprotoberberine derivative or pharmaceutically acceptable salt thereof, preparation method therefor and pharmaceutical composition for preventing or treating diseases associated with activity of NFAT5, containing same as active ingredient” (Korea Research Institute of Chemical Technology, priority 2013, dated 2017):

Experiments:
NFAT5 [1] = assay: NFAT5 protein in LPS-stimulated spleen cells of collagen-induced arthritis mice; format: in vivo; details: CIA mouse spleen cells treated with LPS; FIG. 9
Excerpt: Particularly, the spleen cells of the mouse having arthritis induced by collagen by the same manner as described in Example 11 were stimulated with LPS. Protein was extracted from the cells, followed by quantification of NFAT5 protein.

[2] = Cytotoxicity test (WST-8), HFL-1; format: cell-based; details: human, HFL-1 embryonic lung cells; HFL-1, 24 hours
Description: (§1) To investigate the cytotoxicity of the derivative of the present invention, 5 kinds of cell lines (VERO: African green monkey kidney cell line, HFL-1: human embryonic lung cell line, L929: NCTC clone 929, mouse fibroblast cell line, NIH 3T3: mouse embryonic fibroblast cell line, and CHO-K1: Chinese hamster ovary cell line) were distributed in a 96-well plate at the density of 1×10^4 cells/well, which were treated with the compound of the present invention for 24 hours. The water-soluble tetrazolium salt WST-8 was added thereto. The orange colored formazan dye degraded by dehydrogenase in the live cells was read, followed by nonlinear regression to determine 50% growth inhibition concentration.

IL-6 and TNF-α = assay: Inflammatory cytokine expression in LPS-treated human mononuclear cells (PBMC), real-time PCR; format: cell-based; details: LPS 1 μg/ml, compound 1 μg/ml, 6 hours, FIG. 11
Description: Particularly, PBMC separated from healthy human blood was treated with LPS (1 μg/ml). The cells were treated with the compound of the present invention at the concentration of 1 μg/ml, followed by culture for 6 hours to investigate whether or not the induced inflammatory cytokine secretion was inhibited by the compound. RNA was separated from the cells, from which the transcription levels of IL-6 and TNF-α were quantified by real-time PCR. The results are shown in FIG. 11 (NC: negative control, PC: positive control).

[3] = tested on: inflammatory cytokines (TNF-α, IL-6); assay: Inflammatory cytokines in LPS-stimulated spleen cells of collagen-induced arthritis mice (ELISA); format: in vivo; details: 15 and 60 mg/kg; arthritis mouse spleen cells, LPS 12 hours; FIG. 8
Description: Particularly, the mice having arthritis induced by collagen in Example 10 were used herein. Cells were extracted from the mouse spleen, which were cultured in a 12-well plate and stabilized. Cells were stimulated with LPS for 12 hours and the expressions of inflammatory cytokines (TNF-α, IL-6) were measured by ELISA.

[4] = Cytotoxicity test (WST-8), NIH 3T3; format: cell-based; details: mouse, NIH 3T3 embryonic fibroblast cells; NIN3T3, 24 hours
Description: as §1

[5] = Cytotoxicity test (WST-8), L929; format: cell-based; details: mouse, L929 fibroblast cells (NCTC clone 929); L929, 24 hours
Description: as §1

COX2 = target: T1, COX2 (Ovis aries, UniProt P79208); assay: COX inhibition, COX assay kit (Table 5); format: biochemical
T1 construct: purchased Cayman Co. 760111
T1 sequence (P79208 17-603): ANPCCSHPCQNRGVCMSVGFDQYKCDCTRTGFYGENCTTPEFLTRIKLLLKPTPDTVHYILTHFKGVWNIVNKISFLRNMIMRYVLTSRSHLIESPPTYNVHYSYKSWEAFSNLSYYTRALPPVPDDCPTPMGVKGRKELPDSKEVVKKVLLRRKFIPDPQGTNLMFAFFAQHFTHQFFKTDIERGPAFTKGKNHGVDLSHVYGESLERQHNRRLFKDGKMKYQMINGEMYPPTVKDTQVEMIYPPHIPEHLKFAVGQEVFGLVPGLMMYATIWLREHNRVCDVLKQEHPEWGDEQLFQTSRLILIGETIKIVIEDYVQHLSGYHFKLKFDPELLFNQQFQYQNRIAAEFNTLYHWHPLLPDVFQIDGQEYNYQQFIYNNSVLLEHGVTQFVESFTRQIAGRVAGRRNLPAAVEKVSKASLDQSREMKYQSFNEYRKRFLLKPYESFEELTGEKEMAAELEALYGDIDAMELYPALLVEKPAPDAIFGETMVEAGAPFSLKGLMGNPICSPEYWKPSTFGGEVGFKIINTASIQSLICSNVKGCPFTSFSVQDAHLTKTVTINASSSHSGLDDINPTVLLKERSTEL
Description: 10 μl of substrate and 10 μl of arachidonic acid were added thereto, followed by reaction for 10 minutes in the darkness. Then, OD590 was measured.

[6] = Cytotoxicity test (WST-8), VERO; format: cell-based; details: African green monkey, VERO kidney cells
Description: as §1

[7] = Metabolic stability in rat liver microsomes; format: in vitro ADME; details: rat liver microsome fractions, 30 minutes
Description: Particularly, each compound was added to rat and human liver microsome fractions, followed by culture for 30 minutes. Each compound was administered via intravenous injection (iv) and oral-administration (po) to rat at the concentration of 5 mg/kg, followed by making pharmacokinetic profiles.

NFAT5 [8] = target: T2, NFAT5 (Mus musculus, UniProt Q9WV30); assay: NFAT5 reporter screening (GFP, HCS) in LPS-treated Raw264.7 cells; format: cell-based; details: for Inhibition rate of NFAT5 transcription (%): Raw264.7 reporter, LPS 1 μg/ml, 48 hours
T2 construct: endogenous in cells; host or cells: RAW264.7
T2 sequence (Q9WV30 whole entry): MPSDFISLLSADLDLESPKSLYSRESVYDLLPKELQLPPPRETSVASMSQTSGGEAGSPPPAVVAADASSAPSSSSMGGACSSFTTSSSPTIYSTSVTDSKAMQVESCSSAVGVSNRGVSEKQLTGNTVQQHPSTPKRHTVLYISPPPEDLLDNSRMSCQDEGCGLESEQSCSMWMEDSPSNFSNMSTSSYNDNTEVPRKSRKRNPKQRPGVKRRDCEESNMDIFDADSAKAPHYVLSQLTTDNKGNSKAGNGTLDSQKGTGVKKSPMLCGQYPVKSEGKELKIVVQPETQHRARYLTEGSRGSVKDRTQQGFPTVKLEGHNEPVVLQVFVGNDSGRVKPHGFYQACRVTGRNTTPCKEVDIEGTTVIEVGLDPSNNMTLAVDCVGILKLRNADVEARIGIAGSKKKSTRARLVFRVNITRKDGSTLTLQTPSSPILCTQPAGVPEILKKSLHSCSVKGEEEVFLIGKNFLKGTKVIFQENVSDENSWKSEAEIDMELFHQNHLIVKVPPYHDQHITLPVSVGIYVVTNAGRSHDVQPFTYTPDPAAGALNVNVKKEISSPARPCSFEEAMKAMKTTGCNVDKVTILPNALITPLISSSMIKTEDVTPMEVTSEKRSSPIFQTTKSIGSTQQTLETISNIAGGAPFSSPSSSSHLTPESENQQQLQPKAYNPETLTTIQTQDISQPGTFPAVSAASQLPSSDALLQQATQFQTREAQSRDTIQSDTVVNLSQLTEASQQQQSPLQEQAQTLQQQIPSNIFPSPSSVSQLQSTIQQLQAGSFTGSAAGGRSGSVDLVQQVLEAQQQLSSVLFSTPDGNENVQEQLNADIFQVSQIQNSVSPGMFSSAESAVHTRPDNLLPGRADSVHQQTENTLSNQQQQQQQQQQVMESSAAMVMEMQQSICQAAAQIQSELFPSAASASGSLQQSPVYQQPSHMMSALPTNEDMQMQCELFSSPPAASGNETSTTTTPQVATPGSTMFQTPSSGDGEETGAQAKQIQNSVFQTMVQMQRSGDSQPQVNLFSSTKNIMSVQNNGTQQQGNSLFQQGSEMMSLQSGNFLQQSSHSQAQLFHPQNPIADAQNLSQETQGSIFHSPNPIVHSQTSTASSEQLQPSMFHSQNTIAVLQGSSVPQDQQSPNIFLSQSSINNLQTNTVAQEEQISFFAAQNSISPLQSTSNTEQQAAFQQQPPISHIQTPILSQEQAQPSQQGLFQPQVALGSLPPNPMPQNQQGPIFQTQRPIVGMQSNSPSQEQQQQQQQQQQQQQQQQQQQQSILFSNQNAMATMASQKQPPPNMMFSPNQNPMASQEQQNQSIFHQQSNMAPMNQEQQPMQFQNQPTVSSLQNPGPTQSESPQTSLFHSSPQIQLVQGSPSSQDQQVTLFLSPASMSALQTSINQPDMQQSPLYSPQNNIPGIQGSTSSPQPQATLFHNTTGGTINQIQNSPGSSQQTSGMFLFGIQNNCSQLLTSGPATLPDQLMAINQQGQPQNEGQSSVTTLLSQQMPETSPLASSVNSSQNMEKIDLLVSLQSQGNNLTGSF
Description: To investigate whether or not the derivative of the present invention could inhibit the transcriptional activity of NFAT5, NFAT5 reporter screening was performed. A plasmid vector was constructed by eliminating CMV promoter sequence from the backbone and inserting NFAT5 binding site sequence ([…]) instead. Raw264.7 cells transfected with the vector were cultured in 10% FBS-PRMI (supplemented with 500 μg/ml G418). The cells were distributed in a 96-well plate at the density of 3×10^3 cells/well, followed by further culture for one more day. The cells were treated with LPS at the concentration of 1 μg/ml for 48 hours. Then, the cells were fixed and the expression level of GFP was measured by HCS fluorescence image (Thermo, ArrayScan^VTI).

iNOS = assay: Inhibition of LPS-induced iNOS induction in Raw264.7 cells (Griess reagent); format: cell-based; details: Mus musculus, Raw264.7, LPS 100 ng/ml, 24 hours, read-out: Inhibition rate of iNOS induction (%)
Description: To investigate whether or not the derivative of the present invention could inhibit iNOS inducement, Raw264.7 cells (mouse macrophages) were distributed in a 384-well plate at the density of 3×10^4 cells/well. The cells were treated with LPS at the concentration of 100 ng/ml, followed by culture at 37° C. for 24 hours. The concentration of […] increased in the medium was measured by using Griess reagent. The inhibition rate was calculated by mathematical formula based on the detected signals. The results are shown in Table 2. % inhibition=(mean value of sample−mean value of negative control)/(mean value of positive control −mean value of negative control)×100 [Mathematical Formula 1]

inhibitory effect on COX2 (in words) (COX2): weak inhibitory effect
inhibition rate (COX2; Conc. 20 μM, two values per substance): 15.5
inhibition at 20 µM (COX2; Conc. 20 μM, two values per substance, read-out: inhibition rate): 12.1%
inhibition rate (COX2; Conc. 100 μM, two values per substance): 25.7
inhibition at 100 µM (COX2; Conc. 100 μM, two values per substance, read-out: inhibition rate): 36.7%
IC50 (COX2; Table 5): > 100 µM
remaining compound, Rat (%) [7]: 35 ± 3%
Inhibition rate of NFAT5 transcription (%) (NFAT5 [8]; 1 μM): 11.2%
Inhibition rate of NFAT5 transcription (%) (NFAT5 [8]; 10 μM): 81.2%
Structure (SMILES): COc1ccc2c(Cc3ccccc3F)c3n(c(=O)c2c1OC)CCc1cc2c(cc1-3)OCO2 [Example 1, 13-(2-fluorobenzyl)-9,10-dimethoxy-5H-[1,3]dioxolo[4,5-g]isoquinolino[3,2-a]isoquinoline-8(6H)-one]
expression of NFAT5 (NFAT5 [1]): suppressed
GI50 at 24 h [2]: 26.1 µM
expression of cytokines (IL-6, TNF-α transcription levels) (IL-6 and TNF-α): inhibit the expression of cytokines
expression of IL-6 [3]: reduced
expression of TNF-α [3]: reduced
GI50 at 24 h [4]: 7.16 µM
GI50 at 24 h [5]: 40.3 µM
GI50 at 24 h [6]: 84.2 µM
inhibiting NFAT5 activity (in words) (NFAT5 [8]; Table 3 and FIG. 1): remarkably excellent in inhibiting NFAT5 activity
inhibition at 1 µM (iNOS; 1 μM): 91%
inhibition at 10 µM (iNOS; 10 μM): 134%
